Laboratory results as given in the NIST ThermoML archive (doi:10.1016/j.fluid.2016.02.031).

Assay: xn = mol fraction of the nth substance listed
Conditions: 100 kPa, Liquid; for viscosity: Concentric cylinders viscometry; for mass density: Vibrating tube method

c1ccncc1 [pyridine] + CCC(C)=O
Conditions | mass density [kg/m3] | viscosity [mPa·s]
288.15 K, x1 = 0.1006 | 827.262 | 0.4555
288.15 K, x1 = 0.2019 | 844.704 | 0.4928
288.15 K, x1 = 0.3002 | 861.833 | 0.5309
288.15 K, x1 = 0.4004 | 879.307 | 0.5771
288.15 K, x1 = 0.4999 | 896.875 | 0.629
288.15 K, x1 = 0.597 | 914.2 | 0.6859
288.15 K, x1 = 0.6998 | 932.635 | 0.7603
288.15 K, x1 = 0.7945 | 949.796 | 0.8375
288.15 K, x1 = 0.8962 | 968.632 | 0.9269
288.15 K, x1 = 1 | 988.077 | 1.053
293.15 K, x1 = 0.1006 | 822.086 | 0.4381
293.15 K, x1 = 0.2019 | 839.557 | 0.4718
293.15 K, x1 = 0.3002 | 856.714 | 0.5088
293.15 K, x1 = 0.4004 | 874.211 | 0.5501
293.15 K, x1 = 0.4999 | 891.802 | 0.5983
293.15 K, x1 = 0.597 | 909.146 | 0.6505
293.15 K, x1 = 0.6998 | 927.59 | 0.7177
293.15 K, x1 = 0.7945 | 944.768 | 0.7876
293.15 K, x1 = 0.8962 | 963.61 | 0.8683
293.15 K, x1 = 1 | 983.053 | 0.9801
298.15 K, x1 = 0.1006 | 816.889 | 0.4203
298.15 K, x1 = 0.2019 | 834.388 | 0.4516
298.15 K, x1 = 0.3002 | 851.571 | 0.4867
298.15 K, x1 = 0.4004 | 869.094 | 0.5243
298.15 K, x1 = 0.4999 | 886.708 | 0.5689
298.15 K, x1 = 0.597 | 904.074 | 0.6164
298.15 K, x1 = 0.6998 | 922.541 | 0.6779
298.15 K, x1 = 0.7945 | 939.726 | 0.7418
298.15 K, x1 = 0.8962 | 958.58 | 0.8147
298.15 K, x1 = 1 | 978.02 | 0.9155
303.15 K, x1 = 0.1006 | 811.664 | 0.4019
303.15 K, x1 = 0.2019 | 829.195 | 0.4317
303.15 K, x1 = 0.3002 | 846.407 | 0.4649
303.15 K, x1 = 0.4004 | 863.96 | 0.5
303.15 K, x1 = 0.4999 | 881.597 | 0.5409
303.15 K, x1 = 0.597 | 898.986 | 0.5851
303.15 K, x1 = 0.6998 | 917.474 | 0.6402
303.15 K, x1 = 0.7945 | 934.676 | 0.6995
303.15 K, x1 = 0.8962 | 953.536 | 0.7669
303.15 K, x1 = 1 | 972.979 | 0.8568
308.15 K, x1 = 0.1006 | 806.406 | 0.3835
308.15 K, x1 = 0.2019 | 823.972 | 0.4117
308.15 K, x1 = 0.3002 | 841.216 | 0.4432
308.15 K, x1 = 0.4004 | 858.797 | 0.4758
308.15 K, x1 = 0.4999 | 876.465 | 0.5142
308.15 K, x1 = 0.597 | 893.873 | 0.555
308.15 K, x1 = 0.6998 | 912.381 | 0.6063
308.15 K, x1 = 0.7945 | 929.606 | 0.6588
308.15 K, x1 = 0.8962 | 948.477 | 0.7219
308.15 K, x1 = 1 | 967.923 | 0.8032
313.15 K, x1 = 0.1006 | 801.119 | 0.3653
313.15 K, x1 = 0.2019 | 818.72 | 0.392
313.15 K, x1 = 0.3002 | 835.996 | 0.4219
313.15 K, x1 = 0.4004 | 853.612 | 0.4528
313.15 K, x1 = 0.4999 | 871.309 | 0.4887
313.15 K, x1 = 0.597 | 888.742 | 0.5265
313.15 K, x1 = 0.6998 | 907.282 | 0.5741
313.15 K, x1 = 0.7945 | 924.517 | 0.6226
313.15 K, x1 = 0.8962 | 943.403 | 0.6809
313.15 K, x1 = 1 | 962.857 | 0.7546
318.15 K, x1 = 0.1006 | 795.798 | 0.3502
318.15 K, x1 = 0.2019 | 813.436 | 0.3728
318.15 K, x1 = 0.3002 | 830.749 | 0.401
318.15 K, x1 = 0.4004 | 848.397 | 0.4308
318.15 K, x1 = 0.4999 | 866.128 | 0.4642
318.15 K, x1 = 0.597 | 883.587 | 0.4996
318.15 K, x1 = 0.6998 | 902.151 | 0.544
318.15 K, x1 = 0.7945 | 919.408 | 0.5893
318.15 K, x1 = 0.8962 | 938.312 | 0.6417
318.15 K, x1 = 1 | 957.777 | 0.7103
323.15 K, x1 = 0.1006 | 790.436 | 0.3328
323.15 K, x1 = 0.2019 | 808.12 | 0.3539
323.15 K, x1 = 0.3002 | 825.467 | 0.3807
323.15 K, x1 = 0.4004 | 843.151 | 0.4095
323.15 K, x1 = 0.4999 | 860.918 | 0.4409
323.15 K, x1 = 0.597 | 878.406 | 0.4742
323.15 K, x1 = 0.6998 | 896.999 | 0.5159
323.15 K, x1 = 0.7945 | 914.28 | 0.5586
323.15 K, x1 = 0.8962 | 933.202 | 0.6072
323.15 K, x1 = 1 | 952.682 | 0.6698
328.15 K, x1 = 0.1006 | 785.039 | 0.3157
328.15 K, x1 = 0.2019 | 802.762 | 0.3354
328.15 K, x1 = 0.3002 | 820.152 | 0.361
328.15 K, x1 = 0.4004 | 837.875 | 0.3888
328.15 K, x1 = 0.4999 | 855.68 | 0.4185
328.15 K, x1 = 0.597 | 873.198 | 0.4502
328.15 K, x1 = 0.6998 | 891.821 | 0.4899
328.15 K, x1 = 0.7945 | 909.127 | 0.5297
328.15 K, x1 = 0.8962 | 928.07 | 0.5771
328.15 K, x1 = 1 | 947.564 | 0.6329
333.15 K, x1 = 0.1006 | 779.596 | 0.2989
333.15 K, x1 = 0.2019 | 797.367 | 0.3189
333.15 K, x1 = 0.3002 | 814.798 | 0.3422
333.15 K, x1 = 0.4004 | 832.563 | 0.3696
333.15 K, x1 = 0.4999 | 850.405 | 0.3985
333.15 K, x1 = 0.597 | 867.959 | 0.4291
333.15 K, x1 = 0.6998 | 886.618 | 0.4668
333.15 K, x1 = 0.7945 | 903.947 | 0.5039
333.15 K, x1 = 0.8962 | 922.92 | 0.549
333.15 K, x1 = 1 | 942.433 | 0.5997
